We go through ten molecules from ChEMBL document CHEMBL1201862, “PubChem BioAssay data set” (2004).

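All cell lines were grown in 96-well plates and treated with compound for 48 hours. GI50: concentration for 50% inhibition of growth.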 Activity calls are given as the source filed them. Cut-off read from the data, not from the text of the source: active = GI50 up to about 1.1 µM and inactive = higher.

Among the test systems are PC-3; MCF7; 786-0; SF-295; COLO 205; SNB-19; TK-10; NCI-H522; OVCAR-8; UACC-62; HL-60; EKVX; T47D; SF-268; RPMI-8226; HCT-15; SK-MEL-5; HOP-92; A549; SN12C.
What all share (assay): DTP human tumour cell line panel, 48 h

Regarding `CC(C)(C)OC(=O)N1C(=O)OC[C@@H]2C=C[C@@H]21`, the GI50 with PC-3, in the test on MCF7, with 786-0, in the test with SF-295, with COLO 205 and with SNB-19 was > 100 µM (inactive) in each case. Besides, the GI50 with TK-10, in the test with NCI-H522, in the test with OVCAR-8, with UACC-62, in the test on HL-60 and in the test with EKVX was > 100 µM (inactive) in each case. In addition, the GI50 (commonly the concentration giving 50% growth inhibition) in the test with T47D is > 100 µM (inactive); in the test on SF-268, > 100 µM (inactive); in the test with RPMI-8226 it was > 100 µM (inactive); in the test with HCT-15, above 100 µM; with SK-MEL-5 it was > 100 µM (inactive); in the test on HOP-92, > 100 µM (inactive). The GI50 in the test with A549 and in the test on SN12C was > 100 µM (inactive) each time.

Turning to `O=C(/C=C/c1ccccc1)Oc1cccc(Br)c1`, the GI50 with PC-3 was 93.1 µM (inactive); in the test on MCF7, 20.5 µM (inactive); in the test with 786-0, > 100 µM (inactive); with SF-295, 24.4 µM (inactive); in the test with COLO 205 it was 64.1 µM (inactive); in the test on SNB-19, 31.7 µM (inactive). The GI50 in the test with TK-10 was > 100 µM (inactive); with NCI-H522 it was 5.68 µM (inactive); with OVCAR-8, 60.4 µM (inactive); in the test on UACC-62, 74 µM (inactive); in the test on HL-60, 18.1 µM (inactive); with EKVX, 48.3 µM (inactive). In addition, the GI50 is 53.3 µM (inactive) with T47D; 24.3 µM (inactive) in the test with SF-268; 14.1 µM (inactive) in the test on RPMI-8226; 18.2 µM in the test on HCT-15; 55.3 µM (inactive) with SK-MEL-5; 91 µM (inactive) in the test with HOP-92. For the same molecule, the values for the GI50 in the test with A549 and in the test with SN12C were 69.8 µM (inactive) and > 100 µM (inactive), respectively.

Take `CO[C@@H]1C[C@H]2[C@@H]3CC[C@H]([C@@H](C)COC(C)=O)[C@@]3(C)CC[C@@H]2[C@@]2(C)CC[C@H]3C[C@]312`: the GI50 in the test with PC-3 was 15.2 µM (inactive); in the test on MCF7 it was 9.48 µM (inactive); in the test on 786-0 it was 16.5 µM (inactive); with SF-295 it was 15.1 µM (inactive); in the test with COLO 205, 0.879 µM (active); with SNB-19, 16.9 µM (inactive). Moreover, the GI50 in the test with TK-10 is > 10 µM (inactive); in the test with NCI-H522, 16.2 µM (inactive); in the test with OVCAR-8 it was 12.2 µM (inactive); with HL-60 it was 3.89 µM (inactive); in the test with EKVX, 14.5 µM (inactive); in the test on T47D it was 13.2 µM (inactive). For the same molecule, the GI50 is 17.9 µM (inactive) with SF-268; 8.67 µM (inactive) in the test on RPMI-8226; 13.3 µM in the test with HCT-15; 3.61 µM (inactive) with SK-MEL-5; 19.9 µM (inactive) with HOP-92; 15.9 µM (inactive) in the test on A549. For the same molecule, the GI50 in the test on SN12C is 16.5 µM (inactive).

Consider `Cc1ccc(S(=O)(=O)n2c3c(c4ccccc42)CCN2CCC(Br)C[C@@H]32)cc1` (stereo partly specified), for which the GI50 was 13.1 µM (inactive) with PC-3; 9.42 µM (inactive) in the test with MCF7; 16.6 µM (inactive) with 786-0; 11 µM (inactive) in the test on SF-295; 16.3 µM (inactive) in the test on COLO 205; 15.4 µM (inactive) with SNB-19. Besides, the GI50 in the test with TK-10 was 15.6 µM (inactive); in the test with NCI-H522, 6.34 µM (inactive); with OVCAR-8, 12.6 µM (inactive); in the test on UACC-62 it was 11.9 µM (inactive); in the test on HL-60, 5.12 µM (inactive); with EKVX, 19.1 µM (inactive). Also, the GI50 is 6.11 µM (inactive) in the test on T47D; 16.1 µM (inactive) in the test on SF-268; 6.18 µM (inactive) in the test on RPMI-8226; 12.1 µM in the test with HCT-15; 7.74 µM (inactive) with SK-MEL-5; 18.1 µM (inactive) in the test with HOP-92. Moreover, in the test with A549, the GI50 is 16.7 µM (inactive).

With `O=C(CN1CCNCCN(CC(=O)N2CCCCC2)CCNCC1)N1CCCCC1`, the GI50 in the test with PC-3 is > 100 µM (inactive); with MCF7, > 100 µM (inactive); in the test with 786-0, 43.6 µM (inactive); with SF-295 it was > 100 µM (inactive); in the test on COLO 205 it was > 100 µM (inactive); with SNB-19 it was > 100 µM (inactive). Moreover, the GI50 with TK-10 is > 100 µM (inactive); in the test on NCI-H522, 40.6 µM (inactive); in the test on OVCAR-8, > 100 µM (inactive); in the test on UACC-62 it was > 100 µM (inactive); in the test with HL-60, 32.2 µM (inactive); with EKVX it was > 100 µM (inactive). In addition, the GI50 with T47D is > 100 µM (inactive); with RPMI-8226, > 100 µM (inactive); with HCT-15, above 100 µM; with SK-MEL-5, 71.8 µM (inactive); in the test with HOP-92, > 100 µM (inactive); in the test on A549, 50.8 µM (inactive). Further, the GI50 in the test on SN12C is > 100 µM (inactive).

With `COc1ccccc1/C=C/C1=NN(c2cccc(S(=O)(=O)O)c2)C2(C1)SCC(=O)N2c1nc2ccccc2s1` (stereo unspecified), the GI50 with PC-3 was 70.1 µM (inactive); in the test on MCF7, 44.6 µM (inactive); in the test with 786-0, > 100 µM (inactive); with COLO 205, 67.8 µM (inactive); with SNB-19, > 100 µM (inactive); in the test with TK-10, 84.3 µM (inactive). In addition, the GI50 is 36.7 µM (inactive) with NCI-H522; 53.2 µM (inactive) in the test on OVCAR-8; 53.8 µM (inactive) with UACC-62; 50.2 µM (inactive) in the test with HL-60; 68.2 µM (inactive) in the test with EKVX; 20.4 µM (inactive) with T47D. The GI50 with SF-268 is > 100 µM (inactive); in the test on RPMI-8226 it was 23.6 µM (inactive); in the test with HCT-15, 67.9 µM; in the test with SK-MEL-5 it was 64.4 µM (inactive); in the test with HOP-92, 23.3 µM (inactive); in the test with A549, 84.3 µM (inactive). Also, the GI50 in the test with SN12C is > 100 µM (inactive).

As for `N#C[BH2-][n+]1cn(C2CC(O)C(COP(=O)(O)OC3CC(n4ccc(N)nc4=O)OC3CO)O2)c2nc(N)[nH]c(=O)c21` (stereo unspecified), the GI50 in the test with PC-3, with MCF7, with 786-0, in the test with SF-295, with COLO 205 and with SNB-19 was > 100 µM (inactive) each time. The GI50 in the test on NCI-H522, with OVCAR-8, in the test with UACC-62, with HL-60, in the test on EKVX and in the test with T47D was > 100 µM (inactive) in each case. Moreover, the GI50 in the test on SF-268 was > 100 µM (inactive); in the test on RPMI-8226 it was > 100 µM (inactive); with HCT-15, above 100 µM; in the test with SK-MEL-5, > 100 µM (inactive); in the test with HOP-92, > 100 µM (inactive); with A549 it was > 100 µM (inactive). Besides, in the test with SN12C, the GI50 is > 100 µM (inactive).

Consider `CC1(C)NC2C(=O)c3c([nH]c4ccccc34)[C@]3(C)CCC1CC23` (stereo partly specified), for which the GI50 in the test with PC-3, with MCF7, in the test on 786-0, with SF-295, in the test with COLO 205 and in the test on TK-10 was > 100 µM (inactive) throughout. The GI50 is > 100 µM (inactive) in the test with NCI-H522; > 100 µM (inactive) with OVCAR-8; > 100 µM (inactive) in the test with UACC-62; > 100 µM (inactive) in the test on HL-60; > 100 µM (inactive) with EKVX; 21.6 µM (inactive) in the test on T47D. The GI50 was > 100 µM (inactive) with SF-268; 82.8 µM (inactive) in the test on RPMI-8226; 83 µM in the test on HCT-15; > 100 µM (inactive) in the test on SK-MEL-5; 61.7 µM (inactive) in the test with HOP-92; > 100 µM (inactive) in the test on A549. In addition, the GI50 in the test with SN12C is > 100 µM (inactive).

Take `O=C1CSC2=NC3=C(COC/C3=C\c3ccc(Br)cc3)C(c3ccc(Br)cc3)N12` (stereo unspecified): the GI50 was 41.8 µM (inactive) with PC-3; 44.4 µM (inactive) in the test with MCF7; 83.6 µM (inactive) with 786-0; 55.7 µM (inactive) with SF-295; 58.7 µM (inactive) with COLO 205; > 100 µM (inactive) in the test with SNB-19. Further, the GI50 with TK-10 was 97.9 µM (inactive); in the test on NCI-H522 it was 3.92 µM (inactive); in the test with OVCAR-8 it was 74.6 µM (inactive); in the test on UACC-62 it was > 100 µM (inactive); with HL-60, 12.9 µM (inactive); in the test with EKVX it was > 100 µM (inactive). The GI50 in the test on T47D was 53.2 µM (inactive); in the test on SF-268, > 100 µM (inactive); with RPMI-8226, 20.9 µM (inactive); with HCT-15, 52.6 µM; with SK-MEL-5 it was 96.4 µM (inactive); in the test with HOP-92, > 100 µM (inactive). Also, in the test with SN12C, the GI50 was > 100 µM (inactive).

Turning to `CCOC(=O)c1cccn1S(=O)(=O)c1cc(Cl)ccc1NC(=O)CC`, the GI50 was 59.2 µM (inactive) with PC-3; > 100 µM (inactive) with MCF7; 57 µM (inactive) with 786-0; 35.2 µM (inactive) in the test with SF-295; 16.3 µM (inactive) with COLO 205; > 100 µM (inactive) with SNB-19. Besides, the GI50 is > 100 µM (inactive) in the test on TK-10; 18.5 µM (inactive) in the test on NCI-H522; 58.9 µM (inactive) in the test on UACC-62; > 100 µM (inactive) with HL-60; 61.7 µM (inactive) in the test with EKVX; 44.9 µM (inactive) in the test on T47D. Further, the GI50 with RPMI-8226 was 75.9 µM (inactive); in the test on HCT-15 it was 44 µM; in the test on SK-MEL-5, 20.2 µM (inactive); in the test on HOP-92, > 100 µM (inactive); in the test with A549, 54.1 µM (inactive); in the test with SN12C, > 100 µM (inactive).
